# According to publication PMC8405639, “2-Carba-lysophosphatidic acid is a novel β-lysophosphatidic acid analogue with high potential for lysophosphatidic acid receptor activation and autotaxin inhibition” (Scientific Reports, 2021):
# Experiments:
# human recombinant ATX [1] = biological target: T1, human recombinant ATX (Homo sapiens, UniProt Q13822); test: Hydrolysis of cPA analogues by ATX (LC-QqQ); format: biochemical; details: substrate 10 µM, ATX 50 nM, 37 °C, time-dependent
# T1 construct: purchased Cayman Chemical
# Method: Analyses of LPA from cPA, 2carbaLPA from 2ccPA, and 3carbaLPA from 3ccPA were performed using LC-QqQ as per methods described previously. cPA 18:1, or 2ccPA 18:1 and 3ccPA 18:1 mixture as substrate (10 μM each) were incubated at 37 °C for 2 h with human recombinant ATX (final concentration: 50 nM) and subjected to LC-QqQ. 2carbaLPA and 3carba LPA were both detected in the negative ion mode with selected reaction monitoring (SRM) of the transition from m/z 433.27 to m/z 151.02. To separate α-LPA and the predicted β-LPA or 2carbaLPA and 3carbaLPA, LC method was performed as per previously described protocols with some modifications. Briefly, the UHPLC PEEK Inertsil ODS-3 C18 column (3 µm, 2.1 × 150 mm; GL Sciences, Tokyo, Japan) was used and the compounds were eluted with a gradient solvent system: solvent A (5 mM ammonium formate in water containing 0.0096% formic acid, pH 4.0), solvent B (5 mM ammonium formate in 95% acetonitrile/5% water containing 1.16% formic acid, pH 4.0). The analytical procedure commenced with solvent B 55% for 10 min, followed by a linear gradient 85% for 40 min that was maintained at 85% for 15 min. […] The flow rate was 0.2 mL/min at a column temperature of 40 ℃. The injection volume was 10 µL/sample.
# Supplementary Figure S4. Lysophosphatidic acid (LPA) produced from cyclic phosphatidic acid (cPA), 2-carba-lysophosphatidic acid (2carbaLPA) produced from 2-carba-cyclic phosphatidic acid (2ccPA) and 3-carba-lysophosphatidic acid (3carbaLPA) produced from 3-carba-cyclic phosphatidic acid (3ccPA) by autotaxin (ATX). (a) cPA 16:0, (b) 2ccPA or (c) 3ccPA (final concentration: 10 µM each) was incubated with or without human recombinant ATX (50 nM final concentration) at 37°C. The amount of produced (a) LPA 16:0, (b) 2carbaLPA or (c) 3carbaLPA was detected using liquid chromatography with tandem mass spectrometry (LC-QqQ) and presented as peak area (counts). Data are represented as mean ± standard deviation of experiments conducted in duplicate. […]
# human recombinant ATX [2] = biological target: T1, human recombinant ATX; test: LC-QqQ assay of LPC cleavage by ATX (LPA 16:0 production); format: biochemical; details: for ATX inhibitory activity (LPA 16:0 production, LC-QqQ): 10 µM, LPC 16:0 300 µM, ATX 50 nM, 2 h, 37 °C; for Inhibition of the lysoPLD activity of ATX: stated in Conclusions, assay and concentration not given
# Method: Figure 5 Inhibition of lysophospholipase D activity of autotaxin (ATX) by cyclic phosphatidic acid (cPA) analogues. (a) Concentration–response curves for the inhibition of ATX activity as measured by the […] of the substrate lysophosphatidylcholine (LPC) using choline oxidase and peroxidase. LPC 16:0 (final concentration: 300 µM, above its critical micellar concentration [CMC]), human recombinant ATX (final concentration: 50 nM), and various concentrations of cPA analogues were used for incubation with 4-aminoantipyrine, TOOS (final concentration: 0.05% (w/v) each), choline oxidase and peroxidase (final concentration: 10 U/mL each) in the ATX assay buffer. The absorbance at a wavelength of 555 nm was measured at 0 and 2 h incubation at 37 °C. Inhibition was calculated as percentage (%) of reduction in absorbance compared with absorbance in the vehicle control (without cPA analogues) after subtraction of the value measured at time 0. Data are represented as mean ± standard deviation (n = 3–4 samples). (b) Inhibition of ATX activity measured by lysophosphatidic acid (LPA 16:0) production via liquid chromatography coupled to triple quadrupole mass spectrometry (LC-QqQ). The substrate LPC 16:0 (final concentration: 300 µM) was incubated with human recombinant ATX (final concentration: 50 nM) and cPA analogues (final concentration: 10 μM) for 2 h at 37 °C. The ATX product, LPA 16:0, was quantified by LC-QqQ. Inhibition was calculated as percentage (%) of reduction in LPA production compared with LPA production in the vehicle control (without cPA analogues). Data are represented as mean ± standard deviation (n = 5–6 samples). TEXT PRINTED IN THE PICTURE: (b) LPA: ATX Inhibition, %: ND
# ATX (4 µL, final concentration: 50 nM) and cPA analogues (4 µL, final concentration: 10 µM) were added to a 200-µL siliconized microcentrifuge tube and mixed with 32 µL of LPC 16:0 (final concentration: 300 µM) in ATX assay buffer. After incubation at 37 °C for 2 h, 160 µL of acidic methanol was added to stop enzymatic reaction. Sample solutions were filtered, and the LPA 16:0 production was analysed using LC-QqQ as per methods described previously. Inhibition was calculated as a percentage (%) of reduction in LPA production compared to LPA production in the vehicle control (without cPA analogues).
SMILES,Hydrolysis by ATX (human recombinant ATX [1]),"ATX inhibitory activity (LPA 16:0 production, LC-QqQ) (human recombinant ATX [2])",Inhibition of the lysoPLD activity of ATX (human recombinant ATX [2])
"CCCCCCCC/C=C\CCCCCCCC(=O)OCC1COP(=O)(O)C1 (centres unmarked) [2ccPA 18:1, 2-carba-cyclic phosphatidic acid]",2ccPA to 2carbaLPA,–,–
"CCCCCCCC/C=C\CCCCCCCC(=O)OC[C@@H](O)CCP(=O)(O)O [3carba LPA 18:1, 3-carba-lysophosphatidic acid]",–,significantly stronger than that of 3ccPA,–
"CCCCCCCC/C=C\CCCCCCCC(=O)OC[C@@H]1CCP(=O)(O)O1 [3ccPA 18:1, 3-carba-cyclic phosphatidic acid]",hydrolysed to 3carbaLPA by ATX,weak,30%
"CCCCCCCC/C=C\CCCCCCCC(=O)OC[C@@H]1COP(=O)(O)O1 [cPA 18:1, 1-Oleoyl-cPA]",hydrolyses cPA to LPA,poor ATX inhibitor,10%
